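Method: 48-hour compound exposure of cells in 96-well plates, five concentrations, linear interpolation of endpoints. The concentration for 50% growth inhibition is given as GI50.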 Active and inactive are the calls of the source. No stated cut-off is given here; in the data, active = GI50 up to about 1.1 µM and inactive = higher.

The text below walks through data of ChEMBL document CHEMBL1201862, “PubChem BioAssay data set” (2004).

Test in all cases: NCI tumour cell line growth inhibition, 48 h
In experiment [1] the test system is DU-145.
Experiment [2] deals with UACC-257.
The test system of experiment [3] is HCT-15.
Experiment [4] deals with UO-31.
Experiment [5] concerns SK-MEL-5.
The test system of experiment [6] is LOX IMVI.
Experiment [7] has as its system SK-MEL-2.
Experiment [8] has as its system Hs-578T.
Experiment [9] concerns HCC 2998.
The test system of experiment [10] is ACHN.
Experiment [11] has as its system NCI-H460.
The subject of experiment [12] is A549.
Experiment [13] concerns SK-MEL-28.
Experiment [14] relates to SW-620.
Experiment [15] relates to EKVX.
Experiment [16] concerns SF-268.
In experiment [17] the test system is HT-29.
Experiment [18] has as its system Malme-3M.
For experiment [19], the system named is HOP-92.
The subject of experiment [20] is MDA-MB-231.

For `COC(=O)[C@]12CC[C@H]3CN(C(=O)OCc4ccccc4)[C@H]([C@H]31)[C@H](C(=O)OCC[Si](C)(C)C)N2S(=O)(=O)c1ccc(C)cc1`, the GI50 in experiment [1] was > 100 µM (inactive); in [2], 20 µM (inactive); in experiment [3], > 100 µM; in experiment [4] it was 30.3 µM (inactive); in experiment [5], 12.2 µM (inactive); in experiment [6], 94.4 µM (inactive). The GI50 was 96.4 µM (inactive) in experiment [7]; > 100 µM (inactive) in [8]; > 100 µM (inactive) in experiment [9]; 54.7 µM (inactive) in experiment [10]; > 100 µM (inactive) in experiment [11]; 18.4 µM (inactive) in experiment [12]. For the same compound, the GI50 in experiment [13] was > 100 µM (inactive); in [14] it was > 100 µM (inactive); in experiment [15], 89.9 µM (inactive); in experiment [16] it was > 100 µM (inactive); in experiment [17] it was 42.7 µM (inactive); in [18] it was 96.6 µM (inactive). In addition, the GI50 in experiment [19] is 3.13 µM (inactive); in [20], 8.13 µM (inactive).
For `CC(C)(C)OC(=O)CN1C(=O)CC1CC(=O)c1ccccc1` (stereo not given), the GI50 in experiment [1] was 17.9 µM (inactive); in experiment [2], 18.2 µM (inactive); in experiment [3], 18.2 µM; in experiment [4], 17.2 µM (inactive); in experiment [5], 18.2 µM (inactive); in [6], 16.9 µM (inactive). For the same compound, the GI50 is 16.8 µM (inactive) in [7]; 26.1 µM (inactive) in [8]; 23.5 µM (inactive) in experiment [9]; 21.2 µM (inactive) in [10]; 26.7 µM (inactive) in experiment [11]; > 100 µM (inactive) in experiment [12]. Also, the GI50 is 19.5 µM (inactive) in experiment [13]; 3.58 µM (inactive) in [14]; 17.2 µM (inactive) in [15]; 17.9 µM (inactive) in experiment [16]; 17.2 µM (inactive) in [17]; 17.3 µM (inactive) in [18]. The results for the GI50 in experiment [19] and in [20] were 37.4 µM (inactive) and 17.2 µM (inactive), respectively.
As for `O=C(O)c1cc(N(Cc2ccccc2O)Cc2cc(O)ccc2O)ccc1O` [LAVENDUSTIN A], the GI50 was > 100 µM (inactive) in [1]; > 100 µM (inactive) in experiment [2]; > 100 µM in experiment [3]; > 100 µM (inactive) in experiment [4]; > 100 µM (inactive) in experiment [5]; 34.9 µM (inactive) in experiment [6]. For the same compound, the GI50 in [7] was > 100 µM (inactive); in experiment [8] it was 19.8 µM (inactive); in [9] it was > 100 µM (inactive); in experiment [10], > 100 µM (inactive); in experiment [11] it was > 100 µM (inactive); in [12], > 100 µM (inactive). Besides, the GI50 in experiment [13], in experiment [14], in experiment [15], in [16], in experiment [17] and in experiment [18] was > 100 µM (inactive) throughout. For the same compound, the GI50 in experiment [19] and in [20] was > 100 µM (inactive) in each case.
